Assay results reported in US20260262643A1, “HERBICIDAL BENZOXAZINES” (FMC CORPORATION, priority 2022, published 2026).

What was measured:
blackgrass [1] = test: Test A preemergence; type: in vivo, Alopecurus myosuroides
Procedure, shortened: (§1)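 Loam/sand soil; pre-em directed soil spray at planting, post-em spray at 1–2 leaf (2–10 cm). Compound in non-phytotoxic solvent + surfactant. Greenhouse 10 d; visual injury vs untreated, 0 = no effect, 100 = complete control.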

corn [2] = test: Test A preemergence; type: in vivo, Zea mays
Procedure, shortened: as §1

foxtail, giant [3] = test: Test A preemergence; type: in vivo, Setaria faberi
Procedure, shortened: as §1

goosegrass [4] = test: Test A preemergence; type: in vivo, Eleusine indica
Procedure, shortened: as §1

kochia [5] = test: Test A preemergence; type: in vivo, Bassia scoparia
Procedure, shortened: as §1

oat, wild [6] = test: Test A preemergence; type: in vivo, Avena fatua
Procedure, shortened: as §1

pigweed, palmer [7] = test: Test A preemergence; type: in vivo, Amaranthus palmeri
Procedure, shortened: as §1

ragweed [8] = test: Test A preemergence; type: in vivo, Ambrosia artemisiifolia
Procedure, shortened: as §1

ryegrass, Italian [9] = test: Test A preemergence; type: in vivo, Lolium multiflorum
Procedure, shortened: as §1

soybean [10] = test: Test A preemergence; type: in vivo, Glycine max
Procedure, shortened: as §1

wheat [11] = test: Test A preemergence; type: in vivo, Triticum aestivum
Procedure, shortened: as §1

blackgrass [12] = test: Test A postemergence; type: in vivo, Alopecurus myosuroides; conditions: postemergence, 10 days; for Blackgrass plant response rating: 125 g ai/ha, 0 to 100 scale, 0 no effect, 100 complete control; for Plant response rating, Blackgrass: 500 g ai/ha, visual injury, 0 to 100 scale (0 no effect, 100 complete control)
Procedure, shortened: as §1

corn [13] = test: Test A postemergence; type: in vivo, Zea mays; conditions: postemergence, 10 days; for Corn plant response rating: 125 g ai/ha, 0 to 100 scale, 0 no effect, 100 complete control; for Plant response rating, Corn: 500 g ai/ha, visual injury, 0 to 100 scale (0 no effect, 100 complete control)
Procedure, shortened: as §1

foxtail, giant [14] = test: Test A postemergence; type: in vivo, Setaria faberi; conditions: postemergence, 10 days; for Foxtail, Giant plant response rating: 125 g ai/ha, 0 to 100 scale, 0 no effect, 100 complete control; for Plant response rating, Foxtail, Giant: 500 g ai/ha, visual injury, 0 to 100 scale (0 no effect, 100 complete control)
Procedure, shortened: as §1

goosegrass [15] = test: Test A postemergence; type: in vivo, Eleusine indica; conditions: postemergence, 10 days; for Goosegrass plant response rating: 125 g ai/ha, 0 to 100 scale, 0 no effect, 100 complete control; for Plant response rating, Goosegrass: 500 g ai/ha, visual injury, 0 to 100 scale (0 no effect, 100 complete control)
Procedure, shortened: as §1

kochia [16] = test: Test A postemergence; type: in vivo, Bassia scoparia; conditions: postemergence, 10 days; for Kochia plant response rating: 125 g ai/ha, 0 to 100 scale, 0 no effect, 100 complete control; for Plant response rating, Kochia: 500 g ai/ha, visual injury, 0 to 100 scale (0 no effect, 100 complete control)
Procedure, shortened: as §1

oat, wild [17] = test: Test A postemergence; type: in vivo, Avena fatua; conditions: postemergence, 10 days; for Oat, Wild plant response rating: 125 g ai/ha, 0 to 100 scale, 0 no effect, 100 complete control; for Plant response rating, Oat, Wild: 500 g ai/ha, visual injury, 0 to 100 scale (0 no effect, 100 complete control)
Procedure, shortened: as §1

pigweed, palmer [18] = test: Test A postemergence; type: in vivo, Amaranthus palmeri; conditions: postemergence, 10 days; for Pigweed, Palmer plant response rating: 125 g ai/ha, 0 to 100 scale, 0 no effect, 100 complete control; for Plant response rating, Pigweed, Palmer: 500 g ai/ha, visual injury, 0 to 100 scale (0 no effect, 100 complete control)
Procedure, shortened: as §1

ragweed [19] = test: Test A postemergence; type: in vivo, Ambrosia artemisiifolia; conditions: postemergence, 10 days; for Ragweed plant response rating: 125 g ai/ha, 0 to 100 scale, 0 no effect, 100 complete control; for Plant response rating, Ragweed: 500 g ai/ha, visual injury, 0 to 100 scale (0 no effect, 100 complete control)
Procedure, shortened: as §1

ryegrass, Italian [20] = test: Test A postemergence; type: in vivo, Lolium multiflorum; conditions: postemergence, 10 days; for Ryegrass, Italian plant response rating: 125 g ai/ha, 0 to 100 scale, 0 no effect, 100 complete control; for Plant response rating, Ryegrass, Italian: 500 g ai/ha, visual injury, 0 to 100 scale (0 no effect, 100 complete control)
Procedure, shortened: as §1

soybean [21] = test: Test A postemergence; type: in vivo, Glycine max; conditions: postemergence, 10 days; for Soybean plant response rating: 125 g ai/ha, 0 to 100 scale, 0 no effect, 100 complete control; for Plant response rating, Soybean: 500 g ai/ha, visual injury, 0 to 100 scale (0 no effect, 100 complete control)
Procedure, shortened: as §1

wheat [22] = test: Test A postemergence; type: in vivo, Triticum aestivum; conditions: postemergence, 10 days; for Wheat plant response rating: 125 g ai/ha, 0 to 100 scale, 0 no effect, 100 complete control; for Plant response rating, Wheat: 500 g ai/ha, visual injury, 0 to 100 scale (0 no effect, 100 complete control)
Procedure, shortened: as §1

galium = test: Test A postemergence; type: in vivo, Galium aparine; conditions: postemergence, 10 days; for Galium plant response rating: 125 g ai/ha, 0 to 100 scale, 0 no effect, 100 complete control; for Plant response rating, Galium: 500 g ai/ha, visual injury, 0 to 100 scale (0 no effect, 100 complete control)
Procedure, shortened: as §1

horseweed = test: Test A postemergence; type: in vivo, Erigeron canadensis; conditions: postemergence, 10 days; for Horseweed plant response rating: 125 g ai/ha, 0 to 100 scale, 0 no effect, 100 complete control; for Plant response rating, Horseweed: 500 g ai/ha, visual injury, 0 to 100 scale (0 no effect, 100 complete control)
Procedure, shortened: as §1

barnyardgrass = test: Test B flooded paddy test; type: in vivo, Echinochloa crus-galli; conditions: 250 g ai/ha, Flood, 13 days, 0 to 100 scale (0 no effect, 100 complete control)
Procedure, shortened: (§2)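 Percent weed or crop control, judged by eye on a 0–100 scale 13 days post-treatment, reflects compound added to a 3 cm flood maintained over 2-leaf plants in the greenhouse. Missing entries are marked with a dash.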

ducksalad = test: Test B flooded paddy test; type: in vivo, Heteranthera limosa; conditions: 250 g ai/ha, Flood, 13 days, 0 to 100 scale (0 no effect, 100 complete control)
Procedure, shortened: as §2

rice = test: Test B flooded paddy test; type: in vivo, Oryza sativa; conditions: 250 g ai/ha, Flood, 13 days, 0 to 100 scale (0 no effect, 100 complete control)
Procedure, shortened: as §2

sedge, umbrella = test: Test B flooded paddy test; type: in vivo, Cyperus difformis; conditions: 250 g ai/ha, Flood, 13 days, 0 to 100 scale (0 no effect, 100 complete control)
Procedure, shortened: as §2

[23] = 125 g ai/ha, visual injury after 10 days, 0 to 100 scale, 0 is no effect, 100 is complete control
[24] = 500 g ai/ha, 0 to 100 scale (0 no effect, 100 complete control), 10 days

## CCc1ccc(-n2cnc(C3CC3)n2)cc1C(=O)N1C[C@H](C)Oc2c(Cl)cccc21 [Compound 103]
Blackgrass [1]; [23]
  Plant response rating, Blackgrass: 50
Blackgrass [1]; [24]
  Plant response rating, Blackgrass: 80
Corn [2]; [23]
  Plant response rating, Corn: 20
Corn [2]; [24]
  Plant response rating, Corn: 20
foxtail, giant [3]; [23]
  Plant response rating, Foxtail, Giant: 100
foxtail, giant [3]; [24]
  Plant response rating, Foxtail, Giant: 100
Goosegrass [4]; [23]
  Plant response rating, Goosegrass: 100
Goosegrass [4]; [24]
  Plant response rating, Goosegrass: 100
Kochia [5]; [23]
  Plant response rating, Kochia: 50
Kochia [5]; [24]
  Plant response rating, Kochia: 90
oat, wild [6]; [23]
  Plant response rating, Oat, Wild: 40
oat, wild [6]; [24]
  Plant response rating, Oat, Wild: 40
pigweed, palmer [7]; [23]
  Plant response rating, Pigweed, Palmer: 90
pigweed, palmer [7]; [24]
  Plant response rating, Pigweed, Palmer: 100
Ragweed [8]; [23]
  Plant response rating, Ragweed: 0
Ragweed [8]; [24]
  Plant response rating, Ragweed: 0
ryegrass, Italian [9]; [23]
  Plant response rating, Ryegrass, Italian: 80
ryegrass, Italian [9]; [24]
  Plant response rating, Ryegrass, Italian: 90
Soybean [10]; [23]
  Plant response rating, Soybean: 30
Soybean [10]; [24]
  Plant response rating, Soybean: 60
Wheat [11]; [23]
  Plant response rating, Wheat: 0
Wheat [11]; [24]
  Plant response rating, Wheat: 0
Blackgrass [12]
  Blackgrass plant response rating: 60
  Plant response rating, Blackgrass: 90
Corn [13]
  Corn plant response rating: 10
  Plant response rating, Corn: 80
foxtail, giant [14]
  Foxtail, Giant plant response rating: 90
  Plant response rating, Foxtail, Giant: 90
Goosegrass [15]
  Goosegrass plant response rating: 70
  Plant response rating, Goosegrass: 100
Kochia [16]
  Kochia plant response rating: 80
  Plant response rating, Kochia: 100
oat, wild [17]
  Oat, Wild plant response rating: 30
  Plant response rating, Oat, Wild: 80
pigweed, palmer [18]
  Pigweed, Palmer plant response rating: 90
  Plant response rating, Pigweed, Palmer: 100
Ragweed [19]
  Ragweed plant response rating: 0
  Plant response rating, Ragweed: 40
ryegrass, Italian [20]
  Ryegrass, Italian plant response rating: 50
  Plant response rating, Ryegrass, Italian: 60
Soybean [21]
  Soybean plant response rating: 100
  Plant response rating, Soybean: 100
Wheat [22]
  Wheat plant response rating: 10
  Plant response rating, Wheat: 30
galium
  Galium plant response rating: 100
  Plant response rating, Galium: 100
horseweed
  Horseweed plant response rating: 0
  Plant response rating, Horseweed: 10
barnyardgrass
  Plant response rating, Barnyardgrass: 20
ducksalad
  Plant response rating, Ducksalad: 35
rice
  Plant response rating, Rice: 10
sedge, umbrella
  Plant response rating, Sedge, Umbrella: 100

## Cc1ccc(-n2cnc(C(C)(C)C)n2)cc1C(=O)N1C[C@H](C)Oc2c(C)cccc21 [Compound 100]
Blackgrass [1]; [23]
  Plant response rating, Blackgrass: 60
Blackgrass [1]; [24]
  Plant response rating, Blackgrass: 70
Corn [2]; [23]
  Plant response rating, Corn: 0
Corn [2]; [24]
  Plant response rating, Corn: 40
foxtail, giant [3]; [23]
  Plant response rating, Foxtail, Giant: 100
foxtail, giant [3]; [24]
  Plant response rating, Foxtail, Giant: 100
Goosegrass [4]; [23]
  Plant response rating, Goosegrass: 100
Goosegrass [4]; [24]
  Plant response rating, Goosegrass: 100
Kochia [5]; [23]
  Plant response rating, Kochia: 90
Kochia [5]; [24]
  Plant response rating, Kochia: 100
oat, wild [6]; [23]
  Plant response rating, Oat, Wild: 40
oat, wild [6]; [24]
  Plant response rating, Oat, Wild: 90
pigweed, palmer [7]; [23]
  Plant response rating, Pigweed, Palmer: 100
pigweed, palmer [7]; [24]
  Plant response rating, Pigweed, Palmer: 100
Ragweed [8]; [23]
  Plant response rating, Ragweed: 80
Ragweed [8]; [24]
  Plant response rating, Ragweed: 100
ryegrass, Italian [9]; [23]
  Plant response rating, Ryegrass, Italian: 90
ryegrass, Italian [9]; [24]
  Plant response rating, Ryegrass, Italian: 100
Soybean [10]; [23]
  Plant response rating, Soybean: 80
Soybean [10]; [24]
  Plant response rating, Soybean: 100
Wheat [11]; [23]
  Plant response rating, Wheat: 50
Wheat [11]; [24]
  Plant response rating, Wheat: 60
Blackgrass [12]
  Blackgrass plant response rating: 30
  Plant response rating, Blackgrass: 90
Corn [13]
  Corn plant response rating: 70
  Plant response rating, Corn: 70
foxtail, giant [14]
  Foxtail, Giant plant response rating: 50
  Plant response rating, Foxtail, Giant: 90
Goosegrass [15]
  Goosegrass plant response rating: 70
  Plant response rating, Goosegrass: 100
Kochia [16]
  Kochia plant response rating: 80
  Plant response rating, Kochia: 90
oat, wild [17]
  Oat, Wild plant response rating: 30
  Plant response rating, Oat, Wild: 70
pigweed, palmer [18]
  Pigweed, Palmer plant response rating: 70
  Plant response rating, Pigweed, Palmer: 100
Ragweed [19]
  Ragweed plant response rating: 60
  Plant response rating, Ragweed: 70
ryegrass, Italian [20]
  Ryegrass, Italian plant response rating: 50
  Plant response rating, Ryegrass, Italian: 80
Soybean [21]
  Soybean plant response rating: 100
  Plant response rating, Soybean: 100
Wheat [22]
  Wheat plant response rating: 30
  Plant response rating, Wheat: 40
galium
  Galium plant response rating: 80
  Plant response rating, Galium: 100
horseweed
  Horseweed plant response rating: 40
  Plant response rating, Horseweed: 70
barnyardgrass
  Plant response rating, Barnyardgrass: 0
ducksalad
  Plant response rating, Ducksalad: 40
rice
  Plant response rating, Rice: 0
sedge, umbrella
  Plant response rating, Sedge, Umbrella: 55
